Patent US20260200946A1, “KRAS(G12V) INHIBITORS” (Ranok Therapeutics (Hangzhou) Co. Ltd., priority 2022, published 2026)

Legend:
NCIH727 cells = test: Cancer cell line proliferation (CellTiter-Glo), NCI-H727; format: cell-based; details: Homo sapiens, 72 h, NCIH727 lung carcinoid, heterozygous G12V
Method in brief: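 NCI-H727 cells (1,000/well) were grown 72 h at 37 °C/5% CO2, then exposed to compound at various concentrations (0.5% DMSO final) for a further 72 h. Viability was read by CellTiter-Glo luminescence, and IC50 values were calculated from the dose-response.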

SW620 cells = test: Cancer cell line proliferation (CellTiter-Glo), SW620; format: cell-based; details: Homo sapiens, SW-620, SW620 colorectal adenocarcinoma, homozygous G12V, 72 hr
Method: Cell lines were cultured essentially according to ATCC recommendations. SW620 and NCIH727 cells were plated in 384-well tissue culture plates at 1,000 cells/well and incubated at 37° C./5% CO2 for 72 hr in 40 μl of media. […] Each cell line was then treated with test compounds at various concentrations with a final concentration of 0.5% DMSO/well, and then incubated at 37° C./5% CO2 for 72 hr. 40 μl of CellTiter-Glo® Reagent (Promega Corporation, Madison, WI) was added to each well and processed according manufacturer's protocol. Results were analyzed and IC50 values were calculated in GraphPad 8.0 software.

KRAS(G12V)/SOS1 = target: T1, KRAS(G12V)/SOS1 (Homo sapiens, UniProt P01116, G12V); test: KRAS(G12V)/SOS1 homogeneous time-resolved fluorescence (HTRF) assay; format: binding; details: absence of GTP; 4° C., 3 hours; read-out: HTRF of KRASG12V-SOS1
T1 construct: purchased Cisbio 63ADK000CB18PEH
Method: Binding of test compounds to KRAS(G12V) target protein, which in turn blocks KRAS(G12V) interaction with the SOS1 protein, was measured in the absences of GTP by homogeneous time-resolved fluorescence using the KRAS-G12V/SOS1 Binding Assay Kit (Cisbio, 63ADK000CB18PEH), following the manufacturer's instructions, except as noted. 3-fold serial dilutions of each test compound were prepared ranging from 20 µM to 1.02 nM. The test compound was mixed and incubated with reaction components, incubated in a sealed plate at 4° C. for 3 hours and fluorescence was measured using a PerkinElmer Envision plate reader. The KRAS(G12V)-SOS1 IC50 values (the concentration of 50% of the maximal inhibition) were calculated using GraphPad Prism 8.0 software.

T1 sequence (P01116 1-188 isoform P01116-2 G12V): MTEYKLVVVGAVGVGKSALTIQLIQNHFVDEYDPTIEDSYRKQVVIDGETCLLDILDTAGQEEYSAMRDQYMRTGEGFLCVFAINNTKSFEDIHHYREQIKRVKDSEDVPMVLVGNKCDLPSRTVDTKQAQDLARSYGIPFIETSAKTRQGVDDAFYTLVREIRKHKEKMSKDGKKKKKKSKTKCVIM

SMILES | EC50 (NCIH727 cells) [nM] | EC50 (SW620 cells) [nM] | IC50 (KRAS(G12V)/SOS1) [nM]
C#Cc1c(F)ccc2cc(O)cc(-c3ncc4c(N5CC6CCC(C5)N6C(=O)CC#N)nc(OCC5(CN6CCC(F)CC6)CC5)nc4c3F)c12 [Example 2] | 100 to 1000 | 100 to 1000 | < 100
C#Cc1c(F)ccc2cc(O)cc(-c3ncc4c(N5CC6CCC(C5)N6C(=O)CCC#N)nc(OCC5(CN6CCC(F)CC6)CC5)nc4c3F)c12 [Example 3] | > 1000 | 100 to 1000 | < 100
C#Cc1c(F)ccc2cc(O)cc(-c3ncc4c(N5CC6CCC(C5)N6C(=O)CC(C)(C)C)nc(OCC5(CN6CCC(F)CC6)CC5)nc4c3F)c12 [Example 5] | > 1000 | > 1000 | 100 to 1000
C#Cc1c(F)ccc2cc(O)cc(-c3ncc4c(N5CC6CCC(C5)N6C(=O)NC(C)(C)C)nc(OCC5(CN6CCC(F)CC6)CC5)nc4c3F)c12 [Example 6] | 100 to 1000 | 100 to 1000 | < 100
C#Cc1c(F)ccc2cc(O)cc(-c3ncc4c(N5CC6CCC(C5)N6C(=O)NC(C)C)nc(OCC5(CN6CCC(F)CC6)CC5)nc4c3F)c12 [Example 7] | > 1000 | > 1000 | < 100
C#Cc1c(F)ccc2cc(O)cc(-c3ncc4c(N5CC6CCC(C5)N6C(=O)N(C)C)nc(OCC5(CN6CCC(F)CC6)CC5)nc4c3F)c12 [Example 8] | > 1000 | > 1000 | < 100
C#Cc1c(F)ccc2cc(O)cc(-c3ncc4c(N5CC6CCC(C5)N6C(=O)Nc5ccn[nH]5)nc(OCC5(CN6CCC(F)CC6)CC5)nc4c3F)c12 [Example 10] | > 1000 |  | < 100
C#Cc1c(F)ccc2cc(O)cc(-c3ncc4c(N5CC6CCC(C5)N6C(=O)OCC)nc(OCC5(CN6CCC(F)CC6)CC5)nc4c3F)c12 [Example 11] | 100 to 1000 | 100 to 1000 | 100 to 1000
C#Cc1c(F)ccc2cc(O)cc(-c3ncc4c(N5CC6CCC(C5)N6S(=O)(=O)CC(C)C)nc(OCC5(CN6CCC(F)CC6)CC5)nc4c3F)c12 [Example 14] | > 1000 | 100 to 1000 | 100 to 1000
C#Cc1c(F)ccc2cc(O)cc(-c3ncc4c(N5CC6CCC(C5)N6C(=O)C(O)O)nc(OCC5(CN6CCC(F)CC6)CC5)nc4c3F)c12 [Example 15] | > 1000 |  | 100 to 1000
C#Cc1c(F)ccc2cc(O)cc(-c3ncc4c(N5CC6CCC(C5)N6C(=O)OCC(C)C)nc(OCC5(CN6CCC(F)CC6)CC5)nc4c3F)c12 [Example 16] | > 1000 | > 1000 | 100 to 1000
C#Cc1c(F)ccc2cc(O)cc(-c3ncc4c(N5CC6CCC(C5)N6C(=O)NC(=O)C(C)(C)C)nc(OCC5(CN6CCC(F)CC6)CC5)nc4c3F)c12 [Example 17] | > 1000 | > 1000 | 100 to 1000
C#Cc1c(F)ccc2cc(O)cc(-c3ncc4c(N5CC6CCC(C5)N6C(=O)N5CCC5)nc(OCC5(CN6CCC(F)CC6)CC5)nc4c3F)c12 [Example 18] | > 1000 | > 1000 | 100 to 1000
C#Cc1c(F)ccc2cc(O)cc(-c3nc(OC)c4c(N5CC6CCC(C5)N6C(=O)NC(C)(C)C)nc(OCC5(CN6CCC(F)CC6)CC5)nc4c3F)c12 [Example 21] | 100 to 1000 | 100 to 1000 | < 100
C#Cc1c(F)ccc2cc(O)cc(-c3ncc4c(N5CC6CCC(C5)N6C(=O)C5(C(F)(F)F)CC5)nc(OCC5(CN6CCC(F)CC6)CC5)nc4c3F)c12 [Example 22] | > 1000 | > 1000 | 100 to 1000
C#Cc1c(F)ccc2cc(O)cc(-c3nc(OC)c4c(N5CC6CCC(C5)N6C(=O)NC#N)nc(OCC5(CN6CCC(F)CC6)CC5)nc4c3F)c12 [Example 23] | > 1000 | > 1000 | 100 to 1000
C#Cc1c(F)ccc2cc(O)cc(-c3ncc4c(N5CC6CCC(C5)N6C(=O)N5CC(OC)C5)nc(OCC5(CN6CCC(F)CC6)CC5)nc4c3F)c12 [Example 24] | > 1000 | > 1000 | 100 to 1000
C#Cc1c(F)ccc2cc(O)cc(-c3ncc4c(N5CC6CCC(C5)N6S(=O)(=O)NC(C)C)nc(OCC5(CN6CCC(F)CC6)CC5)nc4c3F)c12 [Example 25] | > 1000 | > 1000 | 100 to 1000
C#Cc1c(F)ccc2cc(O)cc(-c3nc(OC)c4c(N5CC6CCC(C5)N6C(=O)NCC(F)(F)F)nc(OCC5(CN6CCC(F)CC6)CC5)nc4c3F)c12 [Example 26] | 100 to 1000 | > 1000 | < 100

SMILES | EC50 (NCIH727 cells) [nM] | EC50 (SW620 cells) [nM] | IC50 (KRAS(G12V)/SOS1) [nM]
C#Cc1c(F)ccc2cc(O)cc(-c3ncc4c(N5CC6CCC(C5)N6C(=O)CC5CC5)nc(OCC5(CN6CCC(F)CC6)CC5)nc4c3F)c12 [Example 27] | > 1000 | > 1000 | 100 to 1000
C#Cc1c(F)ccc2cc(O)cc(-c3ncc4c(N5CC6CCC(C5)N6C(=O)c5nnn[nH]5)nc(OCC5(CN6CCC(F)CC6)CC5)nc4c3F)c12 [Example 28] | > 1000 | > 1000 | 100 to 1000
C#Cc1c(F)ccc2cc(O)cc(-c3ncc4c(N5CC6CCC(C5)N6C(=O)NC#N)nc(OCC5(CN6CCC(F)CC6)CC5)nc4c3F)c12 [Example 29] | > 1000 | > 1000 | 100 to 1000
C#Cc1c(F)ccc2cc(O)cc(-c3ncc4c(N5CC6CCC(C5)N6C(=O)c5c[nH]cn5)nc(OCC5(CN6CCC(F)CC6)CC5)nc4c3F)c12 [Example 30] | > 1000 | > 1000 | 100 to 1000
C#Cc1c(F)ccc2cc(O)cc(-c3ncc4c(N5CC6CCC(C5)N6CC)nc(OCC5(CN6CCC(F)CC6)CC5)nc4c3F)c12 [Example 31] | > 1000 | > 1000 | 100 to 1000
C#Cc1c(F)ccc2cc(O)cc(-c3ncc4c(N5CC6CCC(C5)N6C(=O)NC(C)C(F)(F)F)nc(OCC5(CN6CCC(F)CC6)CC5)nc4c3F)c12 (stereo not drawn) [Example 32] | > 1000 | > 1000 | 100 to 1000
C#CCCC(=O)N1C2CCC1CN(c1nc(OCC3(CN4CCC(F)CC4)CC3)nc3c(F)c(-c4cc(O)cc5ccc(F)c(C#C)c45)nc(OC)c13)C2 [Example 61] | 100 to 1000 |  | < 100
C#Cc1c(F)ccc2cc(O)cc(-c3nc(OC)c4c(N5CC6CCC(C5)N6C(=O)NCCF)nc(OCC5(CN6CCC(F)CC6)CC5)nc4c3F)c12 [Example 62] | 100 to 1000 |  | < 100
C#Cc1c(F)ccc2cc(O)cc(-c3nc(OC)c4c(N5CC6CCC(C5)N6C(=O)NC(C)(C#N)CC)nc(OCC5(CN6CCC(F)CC6)CC5)nc4c3F)c12 (stereo not drawn) [Example 64] | < 100 |  | < 100
C#Cc1c(F)ccc2cc(O)cc(-c3nc(OC)c4c(N5CC6CCC(C5)N6C(=O)NC(C)(C)C#N)nc(OCC5(CN6CCC(F)CC6)CC5)nc4c3F)c12 [Example 65] | < 100 |  | < 100
C#Cc1c(F)ccc2cc(O)cc(-c3nc(OC)c4c(N5CC6CCC(C5)N6C(=O)CCC#N)nc(OCC5(CN6CC7CC7C6)CC5)nc4c3F)c12 (stereo not drawn) [Example 99] | < 100 | 100 to 1000 | 
C#Cc1c(F)ccc2cc(O)cc(-c3nc(OC)c4c(N5CC6CCC(C5)N6C(=O)NCC#N)nc(OCC5(CN6CC7CC7C6)CC5)nc4c3F)c12 (stereo not drawn) [Example 104] | 100 to 1000 | 100 to 1000 | 
C#Cc1c(F)ccc2cc(O)cc(-c3nc(OC)c4c(N5CC6CCC(C5)N6C(=O)NC(C)C#N)nc(OCC5(CN6CC7CC7C6)CC5)nc4c3F)c12 (stereo not drawn) [Example 105] | < 100 | 100 to 1000 | 
C#Cc1c(F)ccc2cc(O)cc(-c3nc(OC)c4c(N5CC6CCC(C5)N6C(=O)C(C#N)CC#N)nc(OCC5(CN6CC7CC7C6)CC5)nc4c3F)c12 (stereo not drawn) [Example 109] | 100 to 1000 | 100 to 1000 | 
[2H]C([2H])([2H])Oc1nc(-c2cc(O)cc3ccc(F)c(C#C)c23)c(F)c2nc(OCC3(CN4CC5CC5C4)CC3)nc(N3CC4CCC(C3)N4C(=O)C(C)C#N)c12 (stereo not drawn) [Example 118] | 100 to 1000 |  | < 100
[2H]C([2H])([2H])Oc1nc(-c2cc(O)cc3ccc(F)c(C#C)c23)c(F)c2nc(OCC3(CN4CC5CC5C4)CC3)nc(N3CC4CCC(C3)N4C(=O)C(C)(C)C#N)c12 (stereo not drawn) [Example 119] | > 1000 |  | < 100
C#Cc1c(F)ccc2cc(O)cc(-c3nc(OC)c4c(N5CC6CCC(C5)N6C(=O)NCC(F)(F)F)nc(OCC5(CN6CC7CC7C6)CC5)nc4c3F)c12 (stereo not drawn) [Example 129] | < 100 | 100 to 1000 | 
C#Cc1c(F)ccc2cc(O)cc(-c3nc(OC)c4c(N5CC6CCC(C5)N6C(=O)CC(C)C#N)nc(OCC5(CN6CC7CC7C6)CC5)nc4c3F)c12 (stereo not drawn) [Example 140] | < 100 | 100 to 1000 | 
C#Cc1c(F)ccc2cc(O)cc(-c3nc(OC)c4c(N5CC6CCC(C5)N6C(=O)CCOC(F)(F)F)nc(OCC5(CN6CC7CC7C6)CC5)nc4c3F)c12 (stereo not drawn) [Example 147] | 100 to 1000 | 100 to 1000 | 
